Where a name gives a salt, the structure may show the parent alone.
Legend:
[1] = Solubility in dissolution media / solvents; format: physicochemical; conditions: 0.01 M HCl or simulated gastric juice (pH=1.2)
Protocol: WO 05/025566 is directed to irbesartan-containing oral pharmaceutical formulations having improved dissolution profiles, and especially dissolution of 80% or more 15 minutes after dosing and of 90% or more 30 minutes after dosing.

[2] = as described in WO 05/025566; cited from earlier work

Solubility as compared to the free irbesartan [1] | SMILES | Solubility in alcohol and CH2Cl2 [2] | Solubility in water [2]
higher | CCCCC1=NC2(CCCC2)C(=O)N1Cc1ccc(-c2ccccc2-c2nnn[nH]2)cc1 [irbesartan-HCl, irbesartan hydrochloride] | – | –
– | CCCCC1=NC2(CCCC2)C(=O)N1Cc1ccc(-c2ccccc2-c2nnn[nH]2)cc1 [irbesartan, 2-Butyl-3-[[2′-(1H-tetrazol-5-yl) [1,1′-biphenyl]-4-yl]methyl]-1,3-diazaspiro[4,4]-non-1-en-4-one] | slightly soluble | insoluble

— patent US20110045097A1, “SOLID PHARMACEUTICAL COMPOSITION COMPRISING IRBESARTAN” (KRKA, d.d. Novo mesto, priority 2006, published 2011)
